Assay results from ChEMBL document CHEMBL1153880, “Synthesis and adrenolytic activity of 1-(1H-indol-4-yloxy)-3-{[2-(2-methoxyphenoxy)ethyl]amino}propan-2-ol and its enantiomers. Part 1” (Eur J Med Chem, 2009).
Calls of active or inactive are those of the source. The rule behind the calls is not given here.

Experiments:
[1] = molecular target: T1, Adrenergic receptor alpha-2 (Rattus norvegicus, UniProt P22086+P19328+P22909); test: Displacement of [3H]clonidine from alpha2 adrenergic receptor in rat cerebral cortex by liquid scintillation method; format: tissue-based
T1 sequence (P22086 whole entry): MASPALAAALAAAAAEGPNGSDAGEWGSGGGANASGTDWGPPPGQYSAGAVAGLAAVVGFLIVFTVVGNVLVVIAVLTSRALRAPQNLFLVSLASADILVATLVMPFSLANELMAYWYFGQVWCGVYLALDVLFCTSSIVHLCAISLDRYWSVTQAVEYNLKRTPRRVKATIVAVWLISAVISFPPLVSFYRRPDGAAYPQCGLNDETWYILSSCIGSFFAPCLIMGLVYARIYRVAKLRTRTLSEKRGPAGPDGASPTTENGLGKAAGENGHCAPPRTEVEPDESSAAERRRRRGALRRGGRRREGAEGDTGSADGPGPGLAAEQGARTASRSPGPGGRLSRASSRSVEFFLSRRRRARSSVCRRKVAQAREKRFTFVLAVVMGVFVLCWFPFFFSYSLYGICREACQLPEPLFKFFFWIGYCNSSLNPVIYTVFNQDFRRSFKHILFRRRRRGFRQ
T1 sequence (P19328 whole entry): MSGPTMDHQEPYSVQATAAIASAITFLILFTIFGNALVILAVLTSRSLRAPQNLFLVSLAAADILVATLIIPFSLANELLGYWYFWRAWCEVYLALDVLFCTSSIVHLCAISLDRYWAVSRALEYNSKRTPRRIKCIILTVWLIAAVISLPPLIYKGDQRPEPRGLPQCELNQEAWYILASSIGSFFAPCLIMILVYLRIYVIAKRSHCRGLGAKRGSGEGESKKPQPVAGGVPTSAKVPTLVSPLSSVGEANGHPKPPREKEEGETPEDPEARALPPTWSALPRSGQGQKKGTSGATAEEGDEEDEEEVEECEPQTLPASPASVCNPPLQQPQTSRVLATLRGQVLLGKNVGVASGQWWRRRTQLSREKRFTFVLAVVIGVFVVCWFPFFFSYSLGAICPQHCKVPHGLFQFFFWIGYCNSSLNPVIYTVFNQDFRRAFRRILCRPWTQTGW
T1 sequence (P22909 whole entry): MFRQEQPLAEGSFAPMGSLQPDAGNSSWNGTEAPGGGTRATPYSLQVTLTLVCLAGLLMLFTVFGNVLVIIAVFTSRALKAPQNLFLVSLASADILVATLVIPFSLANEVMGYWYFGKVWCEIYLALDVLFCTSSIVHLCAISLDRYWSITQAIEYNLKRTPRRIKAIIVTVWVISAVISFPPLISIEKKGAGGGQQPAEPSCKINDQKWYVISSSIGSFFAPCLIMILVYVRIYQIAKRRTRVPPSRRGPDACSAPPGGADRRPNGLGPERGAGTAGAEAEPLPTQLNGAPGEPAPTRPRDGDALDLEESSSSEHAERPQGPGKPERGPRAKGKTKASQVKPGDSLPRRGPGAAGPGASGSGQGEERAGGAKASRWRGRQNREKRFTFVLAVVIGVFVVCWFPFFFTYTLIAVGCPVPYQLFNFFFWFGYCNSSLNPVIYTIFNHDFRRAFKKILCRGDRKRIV

Rattus norvegicus [2] = test: Effect on heart rate in anaesthetized Wistar rat assessed as number of beats per minute at 1 mg/kg, iv after 5 mins by electrocardiography; format: functional
[3] = Decrease in amplitude of contraction in rabbit intestine at 10 uM after 5 mins; format: functional, Oryctolagus cuniculus; set-up: scale not given: the % may be the effect or the level left
Rattus norvegicus [4] = test: Effect on electrocardiogram in anaesthetized Wistar rat assessed as change in Q-T interval at 1 mg/kg, iv after 15 mins by electrocardiography; format: functional
Rattus norvegicus [5] = test: Effect on electrocardiogram in anaesthetized Wistar rat assessed as change in QRS interval at 1 mg/kg, iv after 15 mins by electrocardiography; format: functional
Rattus norvegicus [6] = test: Hypotensive activity in po dosed anaesthetized normotensive Wistar rat assessed as decrease in systolic pressure administered as single dose after 5 mins; format: functional, organism-based
Rattus norvegicus [7] = test: Hypotensive activity in po dosed anaesthetized normotensive Wistar rat assessed as decrease in diastolic pressure administered as single dose after 5 mins; format: functional, organism-based
Rattus norvegicus [8] = test: Effect on heart rate in anaesthetized Wistar rat assessed as number of beats per minute at 1 mg/kg, iv after 15 mins by electrocardiography; format: functional
Rattus norvegicus [9] = test: Effect on electrocardiogram in anaesthetized Wistar rat assessed as change in QRS interval at 1 mg/kg, iv after 5 mins by electrocardiography; format: functional
Rattus norvegicus [10] = test: Hypotensive activity in anaesthetized normotensive Wistar rat assessed as decrease in systolic pressure at 0.25 to 1 mg/kg, iv administered as single dose after 5 mins; format: functional; set-up: scale not given: the % may be the effect or the level left; conditions: dose mg/kg 0.25-1
Rattus norvegicus [11] = test: Hypotensive activity in anaesthetized normotensive Wistar rat assessed as decrease in diastolic pressure at 0.125 to 1 mg/kg, po administered as single dose after 5 mins; format: functional, organism-based
Rattus norvegicus [12] = test: Hypotensive activity in anaesthetized normotensive Wistar rat assessed as decrease in systolic pressure at 0.125 to 1 mg/kg, po administered as single dose after 5 mins; format: functional, organism-based
Rattus norvegicus [13] = test: Hypotensive activity in anaesthetized normotensive Wistar rat assessed as decrease in diastolic pressure at 0.25 to 1 mg/kg, iv administered as single dose after 5 mins; format: functional; set-up: scale not given: the % may be the effect or the level left; conditions: dose mg/kg 0.25-1
[14] = Increase in frequency of contraction in rabbit intestine at 1 nM after 5 mins; format: functional, Oryctolagus cuniculus
Rattus norvegicus [15] = test: Hypotensive activity in anaesthetized normotensive Wistar rat assessed as reduction in norepinephrine induced pressor response at 1 mg/kg, iv after 5 mins; format: functional, organism-based; set-up: dose 1 mg/kg
Rattus norvegicus [16] = test: Hypotensive activity in anaesthetized normotensive Wistar rat assessed as decrease in systolic pressure at 0.625 mg/kg, po administered as single dose after 5 mins; format: functional, organism-based; set-up: dose 0.625 mg/kg
Rattus norvegicus [17] = test: Hypotensive activity in anaesthetized normotensive Wistar rat assessed as decrease in diastolic pressure at 0.125 to 1 mg/kg, iv administered as single dose after 5 mins; format: functional; set-up: scale not given: the % may be the effect or the level left; conditions: dose mg/kg 0.125-1
Rattus norvegicus [18] = test: Hypotensive activity in anaesthetized normotensive Wistar rat assessed as decrease in diastolic pressure at 0.625 mg/kg, iv administered as single dose after 5 mins; format: functional; set-up: scale not given: the % may be the effect or the level left
Rattus norvegicus [19] = test: Hypotensive activity in anaesthetized normotensive Wistar rat assessed as decrease in diastolic pressure at 0.625 mg/kg, po administered as single dose after 5 mins; format: functional, organism-based; set-up: dose 0.625 mg/kg
Rattus norvegicus [20] = test: Hypotensive activity in anaesthetized normotensive Wistar rat assessed as decrease in systolic pressure at 0.125 to 1 mg/kg, iv administered as single dose after 5 mins; format: functional; set-up: scale not given: the % may be the effect or the level left; conditions: dose mg/kg 0.125-1
Rattus norvegicus [21] = test: Hypotensive activity in anaesthetized normotensive Wistar rat assessed as decrease in systolic pressure at 0.625 mg/kg, iv administered as single dose after 5 mins; format: functional; set-up: scale not given: the % may be the effect or the level left

## COc1ccccc1OCCNC[C@@H](O)COc1cccc2[nH]ccc12
[1]
  Ki: 0.4673 µM
Rattus norvegicus [2]
  Activity: 310.2 min⁻¹
[3]
  Activity: 31%
Rattus norvegicus [4]
  Activity: 62.8 ms
Rattus norvegicus [5]
  Activity: 21.7 ms
Rattus norvegicus [6]
  Activity: inactive
Rattus norvegicus [7]
  Activity: inactive
Rattus norvegicus [8]
  Activity: 298 min⁻¹
Rattus norvegicus [9]
  Activity: 21.7 ms

## COc1ccccc1OCCNCC(O)COc1cccc2[nH]ccc12 (racemic)
[1]
  Ki: 0.0014 µM
Rattus norvegicus [10]
  Activity: 10%
Rattus norvegicus [2]
  Activity: 294.5 min⁻¹
[3]
  Activity: 29%
Rattus norvegicus [11]
  Activity: Active
Rattus norvegicus [12]
  Activity: Active
Rattus norvegicus [13]
  Activity: 10%
[14]
  Activity: 8%
Rattus norvegicus [4]
  Activity: 72.8 ms
Rattus norvegicus [15]
  Activity: Active
Rattus norvegicus [5]
  Activity: 26.9 ms
Rattus norvegicus [8]
  Activity: 287.3 min⁻¹
Rattus norvegicus [9]
  Activity: 24.9 ms

## COc1ccccc1OCCNC[C@H](O)COc1cccc2[nH]ccc12
[1]
  Ki: 0.3655 µM
Rattus norvegicus [2]
  Activity: 291.3 min⁻¹
Rattus norvegicus [16]
  Activity: Active
Rattus norvegicus [17]
  Activity: 14%
Rattus norvegicus [18]
  Activity: 8%
Rattus norvegicus [19]
  Activity: Active
Rattus norvegicus [4]
  Activity: 72 ms
Rattus norvegicus [20]
  Activity: 15%
Rattus norvegicus [15]
  Activity: Active
Rattus norvegicus [21]
  Activity: 8%
Rattus norvegicus [5]
  Activity: 22.7 ms
Rattus norvegicus [8]
  Activity: 304.2 min⁻¹
Rattus norvegicus [9]
  Activity: 24.3 ms
